In PubChem BioAssay AID330 (DTP/NCI, 2004):
Values joined by “and” are separate entries in the source; they are usually repeats but may differ in a detail not shown here. Identical values can stand only once. Toxic doses and inconclusive results are not listed. Rule for the calls: active = survival T/C of 150% or more; inactive = T/C below 125% in these data.

Tested on: P388 leukemia ip, CD2F1 mice, survival T/C
Test: NCI In Vivo Anticancer Drug Screen. Data for tumor model P388 Leukemia (intraperitoneal) in CD2F1 (CDF1) mice
Details: endpoint: median survival time, higher = longer survival
Outline: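 Mice carrying the transplanted tumor received test compound or vehicle. Survival was recorded in each group, and the value is the treated-group measurement divided by that of the vehicle-treated control group.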

[1] = dose: 25.0 mg/kg/injection, schedule: Q01DX005 (ip), vehicle: saline
[2] = dose: 50.0 mg/kg/injection, schedule: Q01DX005 (ip), vehicle: saline
[3] = dose: 50.0 mg/kg/injection, schedule: Q01DX005 (ip), vehicle: saline with Tween-80
[4] = dose: 60.0 mg/kg/injection, schedule: Q01DX005 (ip), vehicle: saline with Tween-80
[5] = dose: 100.0 mg/kg/injection, schedule: Q01DX005 (ip), vehicle: saline with Tween-80
[6] = dose: 120.0 mg/kg/injection, schedule: Q01DX005 (ip), vehicle: saline with Tween-80
[7] = dose: 200.0 mg/kg/injection, schedule: Q01DX005 (ip), vehicle: saline with Tween-80
[8] = dose: 240.0 mg/kg/injection, schedule: Q01DX005 (ip), vehicle: saline with Tween-80
[9] = dose: 50.0 mg/kg/injection, schedule: Q01DX009 (ip), vehicle: saline with Tween-80
[10] = dose: 100.0 mg/kg/injection, schedule: Q01DX009 (ip), vehicle: saline with Tween-80
[11] = dose: 200.0 mg/kg/injection, schedule: Q01DX009 (ip), vehicle: saline with Tween-80
[12] = dose: 60.0 mg/kg/injection, schedule: Q01DX005 (ip), vehicle: Klucel (hydroxypropylcellulose) (HPC)
[13] = dose: 120.0 mg/kg/injection, schedule: Q01DX005 (ip), vehicle: Klucel (hydroxypropylcellulose) (HPC)
[14] = dose: 240.0 mg/kg/injection, schedule: Q01DX005 (ip), vehicle: Klucel (hydroxypropylcellulose) (HPC)

Measured: T/C

CSCC1COC(=O)N1 (stereo not drawn)
inactive: dose: 100.0 mg/kg/injection, schedule: Q04DX002 (ip), vehicle: distilled water + alcohol 100 % of control | dose: 200.0 mg/kg/injection, schedule: Q04DX002 (ip), vehicle: distilled water + alcohol 106 % of control | dose: 400.0 mg/kg/injection, schedule: Q04DX002 (ip), vehicle: distilled water + alcohol 100 % of control

Cc1cc(C)cc(C(O)(CBr)CC(C)(Cl)Cl)c1 (stereo not drawn)
inactive: dose: 50.0 mg/kg/injection, schedule: Q01DX009 (ip), vehicle: saline + alcohol 114 % of control | dose: 100.0 mg/kg/injection, schedule: Q01DX009 (ip), vehicle: saline + alcohol 119 % of control | dose: 200.0 mg/kg/injection, schedule: Q01DX009 (ip), vehicle: saline + alcohol 120 % of control

COC1=C(C)[C@@H]2CC(=O)O[C@@H]3C[C@H]4[C@H](C)C[C@H](OC5OC(CO)C(O)C(O)C5O)C(=O)[C@]4(C)[C@@H](C1=O)[C@@]32C (stereo partly drawn)
inactive: dose: 5.0 mg/kg/injection, schedule: Q01DX005 (ip), vehicle: Klucel (hydroxypropylcellulose) (HPC) 103 % of control | dose: 10.0 mg/kg/injection, schedule: Q01DX005 (ip), vehicle: Klucel (hydroxypropylcellulose) (HPC) 107 % of control | dose: 20.0 mg/kg/injection, schedule: Q01DX005 (ip), vehicle: Klucel (hydroxypropylcellulose) (HPC) 103 % of control

Cc1ccc2nc(NC(=S)S)sc2c1
inactive: dose: 6.25 mg/kg/injection, schedule: Q01DX009 (ip), vehicle: Klucel (hydroxypropylcellulose) (HPC) 100 % of control | dose: 12.5 mg/kg/injection, schedule: Q01DX009 (ip), vehicle: Klucel (hydroxypropylcellulose) (HPC) 107 % of control | dose: 25.0 mg/kg/injection, schedule: Q01DX009 (ip), vehicle: Klucel (hydroxypropylcellulose) (HPC) 113 % of control | dose: 100.0 mg/kg/injection, schedule: Q01DX009 (ip), vehicle: Klucel (hydroxypropylcellulose) (HPC) 87 % of control

COc1cccc(Oc2cccc[n+]2CC(C)=O)c1
inactive: [1] 98 % of control | [2] 98 % of control

C/C(=N\NC(N)=Nc1ccc(Cl)cc1)c1ccc(Cl)c(Cl)c1
inactive: dose: 25.0 mg/kg/injection, schedule: Q04DX002 (ip), vehicle: saline with Tween-80 99 % of control | dose: 50.0 mg/kg/injection, schedule: Q04DX002 (ip), vehicle: saline with Tween-80 102 % of control | dose: 100.0 mg/kg/injection, schedule: Q04DX002 (ip), vehicle: saline with Tween-80 102 % of control

Cc1ccc(-n2c(C)nc3c(c(C)c(C)n3-c3ccccc3)c2=N)cc1
inactive: dose: 6.25 mg/kg/injection, schedule: Q01DX005 (ip), vehicle: Klucel (hydroxypropylcellulose) (HPC) 90 % of control | dose: 12.5 mg/kg/injection, schedule: Q01DX005 (ip), vehicle: Klucel (hydroxypropylcellulose) (HPC) 100 % of control | dose: 25.0 mg/kg/injection, schedule: Q01DX005 (ip), vehicle: Klucel (hydroxypropylcellulose) (HPC) 98 % of control

O=C1SCCC1n1c(=O)c1=O (stereo not drawn)
inactive: dose: 25.0 mg/kg/injection, schedule: Q01DX005 (ip), vehicle: saline with Tween-80 100 % of control | [3] 98 % of control | [4] 94 % of control | [5] 105 % of control | [6] 99 % of control | [7] 96 % of control | [8] 90 % of control | dose: 400.0 mg/kg/injection, schedule: Q01DX005 (ip), vehicle: saline with Tween-80 99 % of control

O=P(c1ccccc1)(N1CC1)N1CC1
inactive: dose: 15.0 mg/kg/injection, schedule: Q04DX003 (ip), vehicle: saline 118 % of control | dose: 30.0 mg/kg/injection, schedule: Q04DX003 (ip), vehicle: saline 122 % of control

Cc1ccc(NC(=O)Nc2sc(=S)c3c(c2C#N)CCCC3)c(C)c1
inactive: [9] 87 % of control | [10] 94 % of control | [11] 89 % of control

N#CC(C(=O)C(=O)Nc1cccc(Cl)c1)c1ccccc1 (stereo not drawn)
inactive: [3] 109 % of control | [5] 104 % of control | [7] 99 % of control

CCCCCCCC/C=C\CCCCCCCCCCCC(=O)OCCN(CCOC(=O)CCCCCCCCCCC/C=C\CCCCCCCC)C(=O)c1ccccc1
inactive: [9] 106 % of control | [10] 116 % of control | [11] 116 % of control

O=C1c2cccnc2C(=O)N1Cc1ccccc1
inactive: dose: 100.0 mg/kg/injection, schedule: Q04DX003 (ip), vehicle: saline with Tween-80 95 % of control | dose: 200.0 mg/kg/injection, schedule: Q04DX003 (ip), vehicle: saline with Tween-80 95 % of control | dose: 400.0 mg/kg/injection, schedule: Q04DX003 (ip), vehicle: saline with Tween-80 90 % of control

O=C(O)C(=O)O.[Ti].[c-]1[c-][c-][cH-][c-]1.[c-]1[c-][c-][cH-][c-]1
inactive: dose: 3.75 mg/kg/injection, schedule: Q01DX005 (ip), vehicle: Klucel (hydroxypropylcellulose) (HPC) 94 % of control | dose: 7.5 mg/kg/injection, schedule: Q01DX005 (ip), vehicle: Klucel (hydroxypropylcellulose) (HPC) 99 % of control | dose: 15.0 mg/kg/injection, schedule: Q01DX005 (ip), vehicle: Klucel (hydroxypropylcellulose) (HPC) 99 % of control | dose: 30.0 mg/kg/injection, schedule: Q01DX005 (ip), vehicle: Klucel (hydroxypropylcellulose) (HPC) 100 % of control

Nc1ncc(CCCOc2ccccc2)c(=O)[nH]1
inactive: dose: 100.0 mg/kg/injection, schedule: Q01DX001 (ip), vehicle: saline with Tween-80 90 % of control | dose: 200.0 mg/kg/injection, schedule: Q01DX001 (ip), vehicle: saline with Tween-80 90 % of control | dose: 400.0 mg/kg/injection, schedule: Q01DX001 (ip), vehicle: saline with Tween-80 90 % of control

Cc1ccc(N/N=c2\c3nc4ccccc4nc2n(-c2ccccc2C)c(=S)n3-c2ccccn2)cc1
inactive: [3] 100 % of control | [5] 96 % of control

CC1=CC(C)(C)N=C(N)N1
inactive: dose: 12.5 mg/kg/injection, schedule: Q01DX005 (ip), vehicle: saline 98 % of control | [1] 97 % of control | [2] 105 % of control and 91 % of control

Cc1[nH]c2ccc(Br)cc2c1/C=N/NC(N)=S
inactive: dose: 100.0 mg/kg/injection, schedule: Q01DX001 (ip), vehicle: Klucel (hydroxypropylcellulose) (HPC) 101 % of control | dose: 200.0 mg/kg/injection, schedule: Q01DX001 (ip), vehicle: Klucel (hydroxypropylcellulose) (HPC) 97 % of control | dose: 400.0 mg/kg/injection, schedule: Q01DX001 (ip), vehicle: Klucel (hydroxypropylcellulose) (HPC) 90 % of control

CC1(O)Oc2c(cc(C(C)(C)C)cc2C(C)(C)C)C1=O (stereo not drawn)
inactive: dose: 6.25 mg/kg/injection, schedule: Q01DX009 (ip), vehicle: saline with Tween-80 99 % of control | dose: 12.5 mg/kg/injection, schedule: Q01DX009 (ip), vehicle: saline with Tween-80 102 % of control | dose: 25.0 mg/kg/injection, schedule: Q01DX009 (ip), vehicle: saline with Tween-80 105 % of control

CC(=O)OCCS(CCOC(C)=O)=NS(=O)(=O)c1ccc(C)cc1
inactive: dose: 50.0 mg/kg/injection, schedule: Q01DX009 (ip), vehicle: saline 108 % of control | dose: 100.0 mg/kg/injection, schedule: Q01DX009 (ip), vehicle: saline 108 % of control | dose: 200.0 mg/kg/injection, schedule: Q01DX009 (ip), vehicle: saline 106 % of control

N#CC(C#N)=C(O)/C(=C/c1ccc(Cl)cc1Cl)NC(=O)c1ccccc1
inactive: [4] 107 % of control | [6] 98 % of control | [8] 100 % of control

COc1ccc(C(CC(=O)N(CCCl)CCCl)CC(=O)N(CCCl)CCCl)cc1
inactive: dose: 100.0 mg/kg/injection, schedule: Q01DX001 (ip), vehicle: suspension in saline 108 % of control | dose: 200.0 mg/kg/injection, schedule: Q01DX001 (ip), vehicle: suspension in saline 119 % of control

CCc1c(C(=O)OC)c(C(=O)OC)c(-c2ccccc2)n1CCn1c(CC)c(C(=O)OC)c(C(=O)OC)c1-c1ccccc1
inactive: [12] 96 % of control | [13] 91 % of control | [14] 93 % of control

C=COC(=O)C(Cc1cccs1)NC(=O)OCc1ccccc1 (stereo not drawn)
inactive: [3] 101 % of control | [5] 96 % of control | [7] 95 % of control

C/C(=N\NC(=S)Nc1ccc(C(=O)O)cc1)c1nccc2ccccc12
inactive: [3] 100 % of control | [5] 90 % of control | [7] 90 % of control

O=C1c2sccc2C2NC12 (stereo not drawn)
inactive: [2] 91 % of control | dose: 100.0 mg/kg/injection, schedule: Q01DX005 (ip), vehicle: saline 100 % of control

Cc1ccc(S(=O)(=O)N2CCCN(S(=O)(=O)c3ccc(C)cc3)COC2)cc1
inactive: [12] 102 % of control | [13] 101 % of control | [14] 102 % of control
